Results from PMC6753193 (Frontiers in Microbiology, 2019).
Read-outs that look alike come from different tables or passages of the source.

How the values were obtained:
EBOV-eGFP [1] = assay: microbe, parasite or virus in culture; format: cell-based, Ebola virus
EBOV minigenome = format: cell-based, Ebola virus
EBOV-eGFP [2] = assay: microbe, parasite or virus in culture; format: cell-based, Ebola virus; conditions: Zaire ebolavirus, Vero C1008, 48 h, read-out: IC50 EBOV inhibition (virus titer)
PP1 [3] = molecular target: T1, PP1 (Homo sapiens, UniProt P62136); format: binding
PP1α = PP1α (Oryctolagus cuniculus, UniProt P62139); format: biochemical
WT PP1 = WT PP1 (Homo sapiens, UniProt P62136); assay: biochemical; format: binding
PP1 [4] = molecular target: T1, PP1; format: binding; remark: listed apart in the source
PP1:cdNIPP1 = PP1:cdNIPP1 (Homo sapiens, UniProt P62136); assay: cell-based
PP1:cdNIPP1 RATA = PP1:cdNIPP1 RATA (Homo sapiens, UniProt P62136); assay: cell-based
PP1:cdNIPP1 helix MUT = PP1:cdNIPP1 helix MUT (Homo sapiens, UniProt P62136); assay: cell-based
PP1 MUT:cdNIPP1 = PP1 MUT:cdNIPP1 (Homo sapiens, UniProt P62136, A299E/G274E/L73Y/Y70W); assay: cell-based
PP1 MUT:cdNIPP1 RATA = PP1 MUT:cdNIPP1 RATA (Homo sapiens, UniProt P62136, A299E/G274E/L73Y/Y70W); assay: cell-based
PP1 [5] = molecular target: PP1 (Homo sapiens, UniProt P36873); format: cell-based
[6] = 24 h
[7] = 1 h, pH 7.4
[8] = 1 h, pH 7.4; remark: listed apart in the source
in vitro [9] = conditions: human
in vitro [10] = conditions: mouse, serum
EBOV = conditions: cited from earlier work
EBOV VP30 = format: cell-based, Ebola virus

WT PP1, sequence (P62136 7-300 limits assumed): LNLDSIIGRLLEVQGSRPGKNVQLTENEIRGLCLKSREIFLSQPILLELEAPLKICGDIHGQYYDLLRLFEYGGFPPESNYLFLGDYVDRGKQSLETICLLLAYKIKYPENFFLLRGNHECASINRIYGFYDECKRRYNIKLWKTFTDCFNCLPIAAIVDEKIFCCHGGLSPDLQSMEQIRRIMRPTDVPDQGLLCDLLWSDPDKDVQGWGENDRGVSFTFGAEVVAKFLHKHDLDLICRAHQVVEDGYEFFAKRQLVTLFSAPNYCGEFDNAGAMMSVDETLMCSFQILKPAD
T1 sequence (P62136 7-300 limits assumed): as above
PP1 MUT:cdNIPP1 RATA, sequence (P62136 whole entry Y70W/L73Y/G274E/A299E, looked up): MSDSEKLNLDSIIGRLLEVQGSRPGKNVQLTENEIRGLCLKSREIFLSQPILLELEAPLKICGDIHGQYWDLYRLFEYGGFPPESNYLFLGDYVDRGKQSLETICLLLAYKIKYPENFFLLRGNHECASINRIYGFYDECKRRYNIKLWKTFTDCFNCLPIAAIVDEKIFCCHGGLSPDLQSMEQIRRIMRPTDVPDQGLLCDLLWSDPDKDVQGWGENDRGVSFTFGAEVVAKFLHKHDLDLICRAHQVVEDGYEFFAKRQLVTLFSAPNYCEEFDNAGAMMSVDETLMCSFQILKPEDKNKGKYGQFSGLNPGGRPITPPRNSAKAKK
PP1 MUT:cdNIPP1, sequence (P62136 whole entry Y70W/L73Y/G274E/A299E, looked up): as above
PP1:cdNIPP1 helix MUT, sequence (P62136 whole entry, looked up): as the sequence (P62136 whole entry Y70W/L73Y/G274E/A299E, looked up) above, with W70Y, Y73L, E274G, E299A counted along it
PP1:cdNIPP1 RATA, sequence (P62136 whole entry, looked up): as the sequence (P62136 whole entry Y70W/L73Y/G274E/A299E, looked up) above, with W70Y, Y73L, E274G, E299A counted along it
PP1:cdNIPP1, sequence (P62136 whole entry, looked up): as the sequence (P62136 whole entry Y70W/L73Y/G274E/A299E, looked up) above, with W70Y, Y73L, E274G, E299A counted along it
PP1 (Homo sapiens, UniProt P36873), sequence (P36873 whole entry, looked up): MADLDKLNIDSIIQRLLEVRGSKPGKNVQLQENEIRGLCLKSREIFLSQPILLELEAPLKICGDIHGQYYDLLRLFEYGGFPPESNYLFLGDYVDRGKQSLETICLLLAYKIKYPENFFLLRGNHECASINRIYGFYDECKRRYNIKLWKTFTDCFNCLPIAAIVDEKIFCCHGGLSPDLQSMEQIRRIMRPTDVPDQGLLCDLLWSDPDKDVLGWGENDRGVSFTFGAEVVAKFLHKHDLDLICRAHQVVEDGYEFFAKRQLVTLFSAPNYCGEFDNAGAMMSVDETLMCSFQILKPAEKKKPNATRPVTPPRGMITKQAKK
PP1α, sequence (P62139 whole entry, looked up): as the sequence (P62136 whole entry Y70W/L73Y/G274E/A299E, looked up) above, with W70Y, Y73L, E274G, E299A counted along it

Row | SMILES | IC50 (EBOV-eGFP [2]) [µM] | Rmax (WT PP1) [RU] | IC50 (PP1:cdNIPP1) [µM] | IC50 (PP1:cdNIPP1 RATA) [µM] | IC50 (PP1:cdNIPP1 helix MUT) [µM] | IC50 (PP1 MUT:cdNIPP1) [µM] | IC50 (PP1 MUT:cdNIPP1 RATA) [µM] | effect on cellular viability (HEK293T cells) | remained intact in mouse liver microsomes [7] | remaining in human liver microsomes [8] [%] | CC50 (in vitro [9]) [µM] | also measured
1 | COc1ccc(C=C2CCc3c2nc2ccccc2c3C(=O)OC(C)C(=O)NC2CC2)cc1OC (centres unmarked) [1E7-07] | 8.6 | 9.763 | 3.7 | > 20 | 4.3 | 4.5 | > 20 | no effect on cellular viability | over 90% | 90 | > 300 | EBOV inhibitory activity (comparison among analogs) (EBOV-eGFP [1]): best EBOV inhibitory activity; inhibition at 10 µM (EBOV-eGFP [1]; Zaire ebolavirus, Vero C1008, 72 h, read-out: EBOV inhibitory activity): ~70%; inhibition of EBOV gene expression (Renilla luciferase) (EBOV minigenome): strongly inhibit; protection of peptide 75[…]96 from ELNLLB painting (PP1 [3]): over 90%; recovered peptide signals compared to the control (protection from ELNLLB painting) (PP1 [3]): over 70%; effect on PP1 enzymatic activity (PP1α): no effect; Kd (WT PP1): 0.661 µM; kd (WT PP1): 0.0009566 s⁻¹; kon (WT PP1; pH 7.4, read-out: ka): 1450 M⁻¹ s⁻¹; competition with pRb-Tat peptide binding to PP1 (PP1 [4]): competed dose-dependently; effect on PP1 cellular localization (PP1 [5]): does not affect; toxicity (Viral ToxGlo) (Vero-E6 cells): no toxicity; remained in mouse serum [6]: 25%; remaining in human serum (human, serum, 24 h): no degradation; half-life (in vitro [10]): 6 h
2 | CCNC(=O)NC(=O)C(C)OC(=O)c1c2c(nc3ccccc13)/C(=C\c1ccc(OC)c(OC)c1)CC2 (centres unmarked) [1E7-03] | 7.2 | – | 1.5 | > 20 | 2.4 | 2.7 | > 20 | no effect on cellular viability | over 90% | 60 | > 300 | inhibition of EBOV gene expression (Renilla luciferase) (EBOV minigenome; 10 μM): strongly inhibit; remaining in human serum (10 μM, 37°C, after 24 h): 78%
3 | CC[C@H](C)[C@H](NC(=O)[C@H](Cc1ccccc1)NC(=O)[C@H](CS)NC(=O)[C@@H](NC(=O)[C@H](CCC(N)=O)NC(=O)[C@H](CS)NC(=O)[C@H](Cc1c[nH]cn1)NC(=O)[C@H](Cc1ccccc1)NC(=O)[C@H](CS)NC(=O)[C@H](CS)NC(=O)[C@H](CCCCN)NC(=O)[C@H](CCCCN)NC(=O)[C@H](CCCNC(=N)N)NC(=O)[C@H](CC(C)C)NC(=O)[C@@H]1CCCN1C(=O)[C@H](CO)NC(=O)[C@H](CO)NC(=O)[C@@H]1CCCN1C(=O)[C@H](Cc1ccccc1)NC(=O)[C@H](CCCCN)NC(=O)[C@H](Cc1ccc(O)cc1)NC(=O)[C@@H]1CCCN1C(=O)[C@H](COP(=O)(O)O)NC(=O)[C@H](CCCNC(=N)N)NC(=O)[C@@H]1CCCN1C(=O)[C@@H](NC(=O)[C@@H](N)Cc1c[nH]cn1)[C@@H](C)CC)C(C)C)C(=O)N[C@H](C(=O)N[C@@H](CCCCN)C(=O)O)[C@@H](C)O [pRb-Tat, reference compound] | – | 212.4 | – | – | – | – | – | – | – | – | – | –
4 | CCNC(=O)NC(=O)C(C)OC(=O)c1c2c(nc3ccccc13)/C(=C\c1cccc([N+](=O)[O-])c1)CCC2 (centres unmarked) [1E7] | – | – | – | – | – | – | – | – | – | – | – | EBOV inhibition (EBOV): inhibited EBOV
5 | C=C1[C@@H](O)[C@@H]2O[C@]3(CC[C@H](/C=C/[C@@H](C)[C@@H]4CC(C)=C[C@@]5(O[C@H](C[C@@](C)(O)C(=O)O)CC[C@H]5O)O4)O3)CC[C@H]2O[C@@H]1[C@@H](O)C[C@H](C)[C@H]1O[C@@]2(CCCCO2)CC[C@H]1C [okadaic acid] | – | – | – | – | – | – | – | – | – | – | – | increase of VP30 phosphopeptides (Thr-119 and Ser-124) vs DMSO control (EBOV VP30): 3.3 fold
